Reference: ChEMBL document CHEMBL5131567, “3,5,7-Substituted Pyrazolo[4,3-d]Pyrimidine Inhibitors of Cyclin-Dependent Kinases and Cyclin K Degraders” (J Med Chem, 2022)
pIC50: −log10 of the molar value. The source made the active and inactive calls. The rule behind the calls is not given here.

Columns and labels:
[1] = Antiproliferative activity against human MINO cells assessed as cell growth inhibition measured after 72 hrs by resazurin dye based microplate reader analysis; type: functional
MINO [2] = assay: Downregulation of cyclin D1 levels in human MINO cells incubated for 24 hrs by immunoblotting analysis; type: functional, cell-based; settings: dose 2.5-40 nM, DDE = dose-dependent effect
MINO [3] = assay: Downregulation of cyclin K levels in human MINO cells at 5 nM incubated for 2 hrs by immunoblotting analysis; type: functional, cell-based
MINO [4] = assay: Downregulation of RB levels in human MINO cells incubated for 24 hrs by immunoblotting analysis; type: functional, cell-based; settings: dose 2.5-40 nM, DDE = dose-dependent effect
MINO [5] = assay: Inhibition of CDK in human MINO cells assessed as dephosphorylation of retinoblastoma protein incubated for 2 hrs by immunoblotting analysis; type: cell-based; settings: dose 0.005-5 µM, DDE = dose-dependent effect
DB = assay: Antiproliferative activity against human DB cells assessed as cell growth inhibition measured after 72 hrs by resazurin dye based microplate reader analysis; type: functional
[6] = Inhibition of GST-tagged human CDK5/p25 expressed in Sf9 cells using histone H1 as substrate in presence of ATP and [gamma33-P] ATP by radioisotope filter binding assay
[7] = biological target: Cyclin-dependent kinase 13/Cyclin-K (Homo sapiens, UniProt Q14004); assay: Inhibition of GST-tagged human CDK13/Cyclin K expressed in Sf9 cells using RBER-IRStide peptide as substrate in presence of ATP and [gamma33-P] ATP by radioisotope filter binding assay
MINO [8] = assay: Downregulation of cyclin K levels in human MINO cells at 50 nM incubated for 2 hrs by immunoblotting analysis; type: functional, cell-based
VFN-D2 [9] = assay: In vivo induction of degradation of cyclin K in patient-derived VFN-D2 cells xenografted in NSG mouse assessed as reduction in CDK12 levels at 0.1 to 10 mg/kg, ip measured after 24 hrs by immunoblotting analysis; type: functional, organism-based; settings: dose 0.1-10 mg/kg
MINO [10] = assay: Inhibition of CDK in human MINO cells assessed as dephosphorylation of C-terminus of RNA polymerase II at serine 2 incubated for 2 hrs by immunoblotting analysis; type: cell-based; settings: dose 0.005-5 µM, DDE = dose-dependent effect
[11] = Antiproliferative activity against human Ri-1 cells assessed as cell growth inhibition measured after 72 hrs by resazurin dye based microplate reader analysis; type: functional
VFN-D2 [12] = assay: In vivo induction of degradation of cyclin K in patient-derived VFN-D2 cells xenografted in NSG mouse assessed as reduction in cyclin K levels at 0.1 to 10 mg/kg, ip measured after 24 hrs by immunoblotting analysis; type: functional, organism-based; settings: dose 0.1-10 mg/kg
MINO [13] = assay: Induction of apoptosis in human MINO cells assessed as reduction in XIAP levels at 2.5 to 40 nM measured after 24 hrs by immunoblotting analysis; type: functional, cell-based; settings: dose 2.5-40 nM
MINO [14] = assay: Downregulation of mcl-1 levels in human MINO cells incubated for 2 hrs by immunoblotting analysis; type: functional, cell-based; settings: dose 2.5-40 nM, DDE = dose-dependent effect
MINO [15] = assay: Induction of degradation of cyclin K in human MINO cells coexpressing DDB1 with siRNA assessed as stabilization of cyclin K levels at 100 nM measured after 1 hrs by immunoblotting analysis; type: functional, cell-based
[16] = Antiproliferative activity against human UPF1H cells assessed as cell growth inhibition measured after 72 hrs by resazurin dye based microplate reader analysis; type: functional
[17] = Antiproliferative activity against human OCI-Ly2 cells assessed as cell growth inhibition measured after 72 hrs by resazurin dye based microplate reader analysis; type: functional
CDK12/Cyclin K = CDK12/Cyclin K (Homo sapiens, UniProt Q9NYV4); assay: Inhibition of GST-tagged human CDK12/Cyclin K expressed in Sf9 cells using RBER-IRStide peptide as substrate in presence of ATP and [gamma33-P] ATP by radioisotope filter binding assay
MINO [18] = assay: Downregulation of CDK4 levels in human MINO cells incubated for 24 hrs by immunoblotting analysis; type: functional, cell-based; settings: dose 2.5-40 nM, DDE = dose-dependent effect
CDK9/cyclin T1 = CDK9/cyclin T1 (Homo sapiens, UniProt P50750); assay: Inhibition of GST-tagged human CDK9/Cyclin T1 expressed in Sf9 cells using (YSPTSPS)2KK peptide as substrate in presence of ATP and [gamma33-P] ATP by radioisotope filter binding assay; type: cell-based
U2932 = assay: Antiproliferative activity against human U2932 cells assessed as cell growth inhibition measured after 72 hrs by resazurin dye based microplate reader analysis; type: functional
MINO [19] = assay: Induction of apoptosis in human MINO cells assessed as reduction in mcl-1 levels at 2.5 to 40 nM measured after 24 hrs by immunoblotting analysis; type: functional, cell-based; settings: dose 2.5-40 nM
SUD4 = assay: Antiproliferative activity against human SU-DHL-4 cells assessed as cell growth inhibition measured after 72 hrs by resazurin dye based microplate reader analysis; type: functional
[20] = biological target: Cyclin-dependent kinase 2/cyclin E1 (Homo sapiens, UniProt P24941); assay: Inhibition of His-tagged CDK2/cyclin E1 (unknown origin) expressed in Sf9 cells using histone H1 as substrate in presence of ATP and [gamma33-P]ATP by radioisotope filter binding assay; type: cell-based
OCI-LY19 = assay: Antiproliferative activity against human OCILY19 cells assessed as cell growth inhibition measured after 72 hrs by resazurin dye based microplate reader analysis; type: functional
NU-DUL-1 = assay: Antiproliferative activity against human NU-DUL-1 cells assessed as cell growth inhibition measured after 72 hrs by resazurin dye based microplate reader analysis; type: functional
[21] = biological target: Cyclin-dependent kinase 2/G1/S-specific cyclin-D1 (Homo sapiens, UniProt P24385+P24941); type: cell-based, Sf9
MINO [22] = assay: Inhibition of CDK in human MINO cells assessed as dephosphorylation of C-terminus of RNA polymerase II at serine 5 incubated for 2 hrs by immunoblotting analysis; type: cell-based; settings: dose 0.005-5 µM, DDE = dose-dependent effect

Cyclin-dependent kinase 13/Cyclin-K, sequence (Q14004 whole entry): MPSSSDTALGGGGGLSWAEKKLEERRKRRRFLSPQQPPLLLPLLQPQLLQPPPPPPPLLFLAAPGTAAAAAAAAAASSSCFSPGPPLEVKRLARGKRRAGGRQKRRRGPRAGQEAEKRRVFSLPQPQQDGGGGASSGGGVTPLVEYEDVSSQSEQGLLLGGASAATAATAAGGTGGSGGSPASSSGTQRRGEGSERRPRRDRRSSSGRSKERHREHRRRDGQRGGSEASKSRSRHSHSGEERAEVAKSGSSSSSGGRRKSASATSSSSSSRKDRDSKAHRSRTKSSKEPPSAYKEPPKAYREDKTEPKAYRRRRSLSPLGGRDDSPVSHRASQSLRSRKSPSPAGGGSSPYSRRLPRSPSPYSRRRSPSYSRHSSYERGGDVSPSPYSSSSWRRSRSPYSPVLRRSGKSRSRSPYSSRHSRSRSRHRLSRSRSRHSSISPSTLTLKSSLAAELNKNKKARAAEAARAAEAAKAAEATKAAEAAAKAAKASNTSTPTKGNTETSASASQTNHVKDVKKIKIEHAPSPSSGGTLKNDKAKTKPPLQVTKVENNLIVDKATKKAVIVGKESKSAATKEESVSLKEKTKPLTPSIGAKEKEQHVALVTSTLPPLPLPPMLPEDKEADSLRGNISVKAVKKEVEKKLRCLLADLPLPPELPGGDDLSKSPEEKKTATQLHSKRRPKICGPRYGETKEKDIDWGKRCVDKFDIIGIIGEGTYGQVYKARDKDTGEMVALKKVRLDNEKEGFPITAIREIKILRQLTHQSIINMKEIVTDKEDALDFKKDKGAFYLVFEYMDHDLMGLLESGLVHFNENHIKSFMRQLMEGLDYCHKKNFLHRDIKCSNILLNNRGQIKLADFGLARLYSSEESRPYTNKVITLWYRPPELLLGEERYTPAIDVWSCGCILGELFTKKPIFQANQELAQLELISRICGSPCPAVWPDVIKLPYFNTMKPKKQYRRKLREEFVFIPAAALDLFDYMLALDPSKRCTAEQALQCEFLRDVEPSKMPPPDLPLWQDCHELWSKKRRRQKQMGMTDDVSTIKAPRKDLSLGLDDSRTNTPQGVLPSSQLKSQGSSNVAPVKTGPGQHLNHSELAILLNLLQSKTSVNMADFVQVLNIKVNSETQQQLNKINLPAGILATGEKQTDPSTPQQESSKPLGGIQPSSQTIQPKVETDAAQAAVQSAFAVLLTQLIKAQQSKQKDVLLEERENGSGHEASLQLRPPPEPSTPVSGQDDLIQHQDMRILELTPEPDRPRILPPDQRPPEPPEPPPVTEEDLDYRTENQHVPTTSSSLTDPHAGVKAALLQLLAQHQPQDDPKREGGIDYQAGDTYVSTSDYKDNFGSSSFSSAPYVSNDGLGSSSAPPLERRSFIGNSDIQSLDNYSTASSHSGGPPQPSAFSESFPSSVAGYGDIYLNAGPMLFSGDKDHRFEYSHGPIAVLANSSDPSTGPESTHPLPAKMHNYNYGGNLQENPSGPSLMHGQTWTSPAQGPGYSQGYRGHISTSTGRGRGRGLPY
Cyclin-dependent kinase 13/Cyclin-K, sequence (O75909 whole entry, further chain): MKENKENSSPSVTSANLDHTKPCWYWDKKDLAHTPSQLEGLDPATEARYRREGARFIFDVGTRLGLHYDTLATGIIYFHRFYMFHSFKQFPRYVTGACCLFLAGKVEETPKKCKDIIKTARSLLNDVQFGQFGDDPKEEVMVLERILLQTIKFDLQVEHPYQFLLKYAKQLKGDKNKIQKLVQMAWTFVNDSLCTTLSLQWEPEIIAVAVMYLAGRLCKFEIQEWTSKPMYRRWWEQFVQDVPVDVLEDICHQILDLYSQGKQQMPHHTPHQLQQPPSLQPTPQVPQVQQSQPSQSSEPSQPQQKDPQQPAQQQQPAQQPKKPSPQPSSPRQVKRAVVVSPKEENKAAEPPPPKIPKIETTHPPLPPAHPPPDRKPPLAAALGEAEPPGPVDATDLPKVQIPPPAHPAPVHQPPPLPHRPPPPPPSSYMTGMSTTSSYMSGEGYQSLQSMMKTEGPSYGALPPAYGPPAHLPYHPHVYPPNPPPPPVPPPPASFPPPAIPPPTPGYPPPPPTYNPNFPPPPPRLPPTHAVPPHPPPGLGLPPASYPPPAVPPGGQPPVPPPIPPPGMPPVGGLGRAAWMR
CDK12/Cyclin K, sequence (O75909 whole entry): as the sequence (O75909 whole entry, further chain) above
CDK12/Cyclin K, sequence (Q9NYV4 whole entry): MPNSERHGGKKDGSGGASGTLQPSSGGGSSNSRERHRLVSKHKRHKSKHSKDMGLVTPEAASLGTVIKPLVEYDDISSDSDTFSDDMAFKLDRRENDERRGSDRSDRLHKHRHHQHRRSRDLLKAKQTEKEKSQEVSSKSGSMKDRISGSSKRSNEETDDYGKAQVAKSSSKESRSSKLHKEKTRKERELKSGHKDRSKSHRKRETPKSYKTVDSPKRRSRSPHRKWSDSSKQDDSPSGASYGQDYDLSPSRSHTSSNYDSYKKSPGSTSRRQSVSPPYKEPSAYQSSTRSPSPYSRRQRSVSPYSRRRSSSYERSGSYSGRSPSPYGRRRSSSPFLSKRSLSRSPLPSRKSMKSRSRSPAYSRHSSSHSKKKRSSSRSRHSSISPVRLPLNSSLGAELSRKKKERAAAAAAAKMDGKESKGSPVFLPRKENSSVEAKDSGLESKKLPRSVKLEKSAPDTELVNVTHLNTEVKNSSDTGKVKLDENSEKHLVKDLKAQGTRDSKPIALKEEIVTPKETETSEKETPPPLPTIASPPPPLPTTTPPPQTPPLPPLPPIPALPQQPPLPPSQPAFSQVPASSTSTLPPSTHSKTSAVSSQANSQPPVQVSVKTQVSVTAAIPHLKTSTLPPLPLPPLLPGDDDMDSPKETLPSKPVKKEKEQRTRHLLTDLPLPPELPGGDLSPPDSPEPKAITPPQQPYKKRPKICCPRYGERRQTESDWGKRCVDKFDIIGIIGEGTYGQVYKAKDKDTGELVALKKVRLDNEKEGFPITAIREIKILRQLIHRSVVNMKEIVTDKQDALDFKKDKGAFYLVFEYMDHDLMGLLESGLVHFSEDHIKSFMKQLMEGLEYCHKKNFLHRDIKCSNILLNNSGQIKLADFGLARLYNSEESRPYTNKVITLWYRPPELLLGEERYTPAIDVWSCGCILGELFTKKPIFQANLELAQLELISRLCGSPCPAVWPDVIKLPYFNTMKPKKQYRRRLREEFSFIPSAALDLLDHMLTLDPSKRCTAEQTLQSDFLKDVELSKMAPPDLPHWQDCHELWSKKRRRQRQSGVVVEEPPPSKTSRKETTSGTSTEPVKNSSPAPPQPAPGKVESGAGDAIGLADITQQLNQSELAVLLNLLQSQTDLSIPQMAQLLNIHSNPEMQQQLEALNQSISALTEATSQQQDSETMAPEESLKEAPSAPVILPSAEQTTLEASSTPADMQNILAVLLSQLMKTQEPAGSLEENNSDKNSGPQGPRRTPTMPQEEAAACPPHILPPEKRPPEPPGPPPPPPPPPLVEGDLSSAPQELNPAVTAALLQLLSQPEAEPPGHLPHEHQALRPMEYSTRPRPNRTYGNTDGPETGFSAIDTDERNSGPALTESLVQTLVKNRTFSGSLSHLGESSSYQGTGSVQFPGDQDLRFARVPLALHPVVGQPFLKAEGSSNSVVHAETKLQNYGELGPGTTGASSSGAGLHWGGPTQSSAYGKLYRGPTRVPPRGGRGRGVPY
CDK9/cyclin T1, sequence (O60563 whole entry): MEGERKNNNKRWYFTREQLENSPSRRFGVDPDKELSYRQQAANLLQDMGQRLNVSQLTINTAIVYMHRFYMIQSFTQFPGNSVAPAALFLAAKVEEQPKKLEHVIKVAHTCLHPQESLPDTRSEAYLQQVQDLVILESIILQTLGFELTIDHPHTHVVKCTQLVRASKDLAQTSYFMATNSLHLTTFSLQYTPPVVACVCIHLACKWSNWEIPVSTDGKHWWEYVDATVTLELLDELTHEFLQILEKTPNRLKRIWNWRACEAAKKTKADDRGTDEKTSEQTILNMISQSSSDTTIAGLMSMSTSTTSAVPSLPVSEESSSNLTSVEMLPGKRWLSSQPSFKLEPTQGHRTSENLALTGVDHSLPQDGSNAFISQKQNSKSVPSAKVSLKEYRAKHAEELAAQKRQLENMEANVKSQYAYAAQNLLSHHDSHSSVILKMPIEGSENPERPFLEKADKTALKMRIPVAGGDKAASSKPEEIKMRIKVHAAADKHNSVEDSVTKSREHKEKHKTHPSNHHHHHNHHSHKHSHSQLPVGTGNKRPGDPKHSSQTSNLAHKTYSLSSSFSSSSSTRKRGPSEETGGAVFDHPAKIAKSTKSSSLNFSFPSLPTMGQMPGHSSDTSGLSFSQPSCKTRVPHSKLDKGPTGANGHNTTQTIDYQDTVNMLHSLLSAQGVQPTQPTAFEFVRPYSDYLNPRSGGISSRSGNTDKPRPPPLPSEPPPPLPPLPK
CDK9/cyclin T1, sequence (P50750 whole entry): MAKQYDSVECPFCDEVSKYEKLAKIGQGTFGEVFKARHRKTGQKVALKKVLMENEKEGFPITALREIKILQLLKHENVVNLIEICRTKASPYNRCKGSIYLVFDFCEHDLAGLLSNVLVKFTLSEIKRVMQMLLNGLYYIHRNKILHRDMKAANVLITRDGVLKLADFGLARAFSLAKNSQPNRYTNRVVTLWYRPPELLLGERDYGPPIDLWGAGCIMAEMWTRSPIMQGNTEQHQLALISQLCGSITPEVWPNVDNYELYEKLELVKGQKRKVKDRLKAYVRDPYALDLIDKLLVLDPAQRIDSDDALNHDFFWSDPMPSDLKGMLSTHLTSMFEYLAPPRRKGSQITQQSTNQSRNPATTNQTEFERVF

pIC50 [6]: 7.41
pIC50 [7]: 7.66
pIC50 (CDK12/Cyclin K): 7.19
pIC50 (CDK9/cyclin T1): 7.70
pIC50 [20]: 8.40
GI50 (OCI-LY19): 465 nM
pIC50 [21]: < 6.00
SMILES: NCCSc1nc(NCc2ccc(-n3cccn3)cc2)c2[nH]nc(C3CCC3)c2n1
GI50 [1]: 10 nM
Activity (MINO [2]): Dde
Activity (MINO [3]): Active
Activity (MINO [4]): Dde
Activity (MINO [5]): Dde
GI50 (DB): 20 nM
Activity (MINO [8]): Active
Activity (VFN-D2 [9]): Active
Activity (MINO [10]): Dde
GI50 [11]: 54 nM
Activity (VFN-D2 [12]): Active
Activity (MINO [13]): Active
Activity (MINO [14]): Dde
Activity (MINO [15]): Active
GI50 [16]: 10 nM
GI50 [17]: 11 nM
Activity (MINO [18]): Dde
GI50 (U2932): 55 nM
Activity (MINO [19]): Active
GI50 (SUD4): 28 nM
GI50 (NU-DUL-1): 15 nM
Activity (MINO [22]): Dde
